This is an account of results in US20060217418A1, “Substituted alkyl amido piperidines” (priority 2001, published 2006).

The test system of one assay is Sprague Dawley rats. In words: Continuous Slow Transvesicular Infusion (CSTI) rat model. Type of assay: in vivo. On the set-up: key: F: Produced an increase in bladder capacity in rats relative to baseline capacity. The following applies: intragastric administration, bladder capacity relative to baseline capacity. The procedure:
Male Sprague Dawley rats weighing approximately 300 g were used for the study. Rats were anaesthetized with pentobarbitone sodium (50 mg/kg, i.p). Through a median abdominal incision, bladder was exposed and a polyethylene cannula (PE 50) was introduced into the bladder through a small cut on the dome of the bladder and the cannula was secured with a purse string suture. The other end of the cannula was exteriorized subcutaneously at the dorsal neck area. Similarly, another cannula (PE 50) was introduced into the stomach through a paramedian abdominal incision with the free end exteriorized subcutaneously to the neck region. The surgical wounds were closed with silk 4-0 suture and the animal was allowed to recover with appropriate post surgical care. On the following day, the animal was placed in a rat restrainer. The open end of the bladder-cannula was connected to a pressure transducer as well as infusion pump through a three-way stopcock. The bladder voiding cycles were initiated by continuous infusion of normal saline at the rate of 100 μl/min. The repetitive voiding contractions were recorded on a Power Lab on-line data acquisition software. After recording the basal voiding pattern for an hour, the test drug or vehicle was administered directly into stomach through the intragastric catheter and the voiding cycles were monitored for 5 hours. Micturition pressure and frequency were calculated before and after the treatment (at every 30 min interval) for each animal. Bladder capacity was calculated from the micturition frequency, based on the constant infusion of 100 μl/min. The effect of the test drug was expressed as a percentage of basal, pre-drug bladder capacity. WAY 100635 was used as positive control for comparison.

For another assay, the target named is T1, rat MCH1 receptor (Rattus norvegicus, UniProt P97639).
T1 construct: operatively linked to DNA encoding the rat MCH1 receptor so as to permit expression thereof; expressed in transfected cells; host or cells: Human embryonic kidney Peak rapid 293 (Peakr293) cells, transient calcium phosphate transfection, membranes
T1 sequence (P97639 whole entry): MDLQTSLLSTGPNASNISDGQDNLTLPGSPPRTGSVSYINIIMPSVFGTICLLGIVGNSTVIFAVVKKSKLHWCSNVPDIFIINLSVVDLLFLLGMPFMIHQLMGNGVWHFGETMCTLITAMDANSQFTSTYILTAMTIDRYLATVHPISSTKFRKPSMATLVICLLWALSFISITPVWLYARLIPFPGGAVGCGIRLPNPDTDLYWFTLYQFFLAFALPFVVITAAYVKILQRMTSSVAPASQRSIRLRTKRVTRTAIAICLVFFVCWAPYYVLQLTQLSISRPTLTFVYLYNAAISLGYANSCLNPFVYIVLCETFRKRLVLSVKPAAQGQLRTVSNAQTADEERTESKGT
Kind of assay: Radioligand binding assay at cloned rat MCH1 receptor ([3H]Compound A). The following applies: cloned rat MCH1, Peakr293 cell membranes, 0.08 nM [3H]Compound A, 25° C., 90 minutes; read-out: Ki(MCH-1).

For assay [1] the following is noted: in vivo; cited from earlier work.

In the case of `CC(C)C(=O)Nc1cccc(C2CCN(CCCNC(=O)C(c3ccc(F)cc3)c3ccc(F)cc3)CC2)c1` [Example 1, N-{3-[1-(3-{[BIS(4-FLUOROPHENYL)ACETYL]AMINO}PROPYL)-4-PIPERIDINYL] PHENYL}-2-METHYLPROPANAMIDE], the CSTI entry in the assay with Sprague Dawley rats is given as “F”. Moreover, the Ki at rat MCH1 receptor came to 1.3 nM.
`CC(=O)Nc1cccc(C2CCN(CCCNC(=O)C(c3ccccc3)c3ccccc3)CC2)c1` [Example 3, N-(3-{4-[3-(acetylamino)phenyl]-piperidinyl}propyl)-2,2-diphenylacetamide]: the CSTI entry with Sprague Dawley rats is given as “F”. The Ki on rat MCH1 receptor turned out to be 2.5 nM.
For `Cc1ccc(NC(=O)C(C)C)cc1C1CCN(CCCNC(=O)C(c2ccccc2)c2ccccc2)CC1` [Example 4] the same measures were “F” and 2.5 nM.
In the same order, the values of `CC(C)C(=O)Nc1cccc(C2CCN(CCCNC(=O)C(c3ccccc3)c3ccccc3)CC2)n1` [Example 6] are “F” and 5.6 nM.
For `CC(C)C(=O)Nc1cccc(C2CCN(CCCNC(=O)C(C)(C)c3ccc(Cl)cc3)CC2)c1` [Example 8, 2-(4-CHLOROPHENYL)-N-(3-{4-[3-(ISOBUTYRYLAMINO)PHENYL]-1-PIPERIDINYL} PROPYL)-2-METHYLPROPANAMIDE] the same measures were “F” and 11.7 nM.
`CC(C)C(=O)Nc1ccc(F)c(C2CCN(CCCNC(=O)C(c3ccccc3)c3ccccc3)CC2)c1` [Example 24]: the CSTI entry with Sprague Dawley rats is “F”. The Ki on rat MCH1 receptor is 4.7 nM.
For `CC(C)C(=O)Nc1cccc(C2CCN(CCCNC(=O)C(c3ccc(F)cc3)c3ccc(F)cc3)CC2)n1` [Example 29] the same measures were “F” and 2.3 nM.
As to `Cc1ccc(NC(=O)C(C)C)cc1C1CCN(CCCNC(=O)C(c2ccc(F)cc2)c2ccc(F)cc2)CC1` [Example 32], the CSTI result in the assay with Sprague Dawley rats is reported as “F”. Moreover, the Ki at rat MCH1 receptor was determined as 0.6 nM.
For `CC(C)C(=O)Nc1ccc(F)c(C2CCN(CCCNC(=O)C(c3ccc(F)cc3)c3ccc(F)cc3)CC2)c1` [Example 35, N-{3-[1-(3-{[bis(4-fluorophenyl)acetyl]amino}propyl)-4-piperidinyl]-4-fluorophenyl}-2-methylpropanamide] the same measures were “F” and 0.4 nM.
For `Cc1ccc(NC(=O)C(C)C)cc1C1CCN(CCCNC(=O)[C@H](C)c2ccc(Cl)cc2)CC1` [Example 167], the Ki at rat MCH1 receptor stood at 18.7 nM.
With `Cc1ccc(NC(=O)C(C)C)cc1C1CCN(CCCNC(=O)[C@@H](C)c2ccc(F)cc2)CC1` [Example 168, (2S)-2-(4-fluorophenyl)-N-(3-{4-[5-(isobutyrylamino)-2-methylphenyl]-1-piperidinyl}propyl) propanamide], the inhibition constant (Ki) at rat MCH1 receptor was found to be 12.1 nM.
In the case of `Cc1ccc(NC(=O)C(C)C)cc1C1CCN(CCCNC(=O)[C@H](C)c2ccc(F)cc2)CC1` [Example 169, (2R)-2-(4-fluorophenyl)-N-(3-{4-[5-(isobutyrylamino)-2-methylphenyl]-1-piperidinyl}propyl) propanamide], the Ki at rat MCH1 receptor came out at 35.9 nM.
For `CC(C)C(=O)Nc1cncc(C2CCN(CCCNC(=O)C(c3ccccc3)c3ccccc3)CC2)c1` [Example 170, N-[5-(1-{3-[(diphenylacetyl)amino]propyl}-4-piperidinyl)-3-pyridinyl]-2-methyl propanamide], the Ki at rat MCH1 receptor was determined as 19.1 nM.
The same measure, in the same setting: then `CC(C)C(=O)Nc1c(F)cc(F)c(C2CCN(CCCNC(=O)C(c3ccccc3)c3ccccc3)CC2)c1F` [Example 171, N-[3-(1-{3-[(diphenylacetyl)amino]propyl}-4-piperidinyl)-2,4,6-trifluorophenyl]-2-methylpropanamide], with 9.1 nM; and `CC(C)C(=O)Nc1cncc(C2CCN(CCCNC(=O)C(c3ccc(F)cc3)c3ccc(F)cc3)CC2)c1` [Example 172, N-{5-[1-(3-{[bis(4-fluorophenyl)acetyl]amino}propyl)-4-piperidinyl]-3-pyridinyl}-2-methylpropanamide], with 2.5 nM; and `CC(C)C(=O)Nc1c(F)cc(F)c(C2CCN(CCCNC(=O)C(c3ccc(F)cc3)c3ccc(F)cc3)CC2)c1F` [Example 173, N-{3-[1-(3-{[bis(4-fluorophenyl)acetyl]amino}propyl)-4-piperidinyl]-2,4,6-trifluorophenyl}-2-methylpropanamide], with 2.5 nM.
As to `Cc1ccc(NC(=O)C(C)C)cc1C1CCN(CCCNC(=O)Cc2ccc(F)cc2)CC1` [Example 175, N-{3-[1-(3-{[(4-fluorophenyl)acetyl]amino}propyl)-4-piperidinyl]-4-methylphenyl}-2-methyl propanamide], the Ki on rat MCH1 receptor came out at 24.7 nM.
Take `CN(C)CC1CCc2cc(NC(=O)c3ccc(-c4ccc(F)cc4)cc3)ccc2C1` (stereo not drawn) [Example T-226296]: the “food intake induced by the intracerebroventricular application of MCH” value in assay [1] is recorded as “inhibit food intake”.

Broadly, the Ki is a dissociation constant, usually derived from enzyme kinetics or from competition with a known ligand.
